# Columns and labels:
# [1] = tested on: CHEAL—Common lambsquarters (Chenopodium album); test: General preemergence herbicidal activity, common lambsquarters; type: in vivo; settings: pre-emergent, rate 140 g ai/ha, visual score after 20-22 days (0 no injury, 100 complete kill or no emergence), read-out: % Growth Inhibition CHEAL
# Description: (§1) Seeds of the desired test plant species were planted in a soil matrix prepared by mixing a loam soil (43 percent silt, 19 percent clay, and 38 percent sand, with a pH of about 8.1 and an organic matter content of about 1.5 percent) and sand in a 70 to 30 ratio. The soil matrix was contained in plastic pots with a surface area of 113 square centimeters. When required to ensure good germination and healthy plants, a fungicide treatment and/or other chemical or physical treatment was applied. A weighed amount, determined by the highest rate to be tested, of each test compound was placed in a 25 mL glass vial and was dissolved in 6 mL of a 97:3 v/v (volume/volume) mixture of acetone and DMSO to obtain concentrated stock solutions. […] The stock solutions obtained were diluted with 18 mL of a 0.1% v/v aqueous solution of Tween® 20 surfactant to obtain spray solutions containing the highest application rate. Additional application rates were obtained by serial dilution of 12 mL of the high rate solution into a solution containing 3 mL of 97:3 v/v mixture of acetone and DMSO and 9 mL of the 0.1% v/v aqueous solution of Tween® 20 surfactant to obtain 1⁄2X, 1⁄4X, 1⁄8X and 1/16X rates of the high rate. Compound requirements are based upon a 12 mL application volume at a rate of 187 L/ha. Formulated compounds were applied to the plant material with an overhead Mandel track sprayer equipped with […] nozzles calibrated to deliver 187 L/ha over an application area of 0.503 square meters at a spray height of 18 inches (43 cm) above the soil surface. Control plants were sprayed in the same manner with the solvent blank. The treated pots and control pots were placed in a greenhouse maintained with an approximate 15 hour photoperiod and temperatures of about 23-29° C. during the day and 22-28° C. during the night. Nutrients and water were added on a regular basis and supplemental lighting was provided with overhead metal halide 1000-Watt lamps as necessary. The water was added by top-irrigation. After 20-22 days, the condition of the test plants that germinated and grew as compared with that of the untreated plants that emerged and grew was determined visually and scored on a scale of 0 to 100 percent where 0 corresponds to no injury and 100 corresponds to complete kill or no emergence.
# [2] = tested on: ECHCG—Barnyardgrass (Echinochloa crus-galli); test: General postemergence herbicidal activity, barnyardgrass; type: in vivo; settings: post-emergence, 336 h, post-emergent, rate 140 g ai/ha, visual score after 14 days (0 no injury, 100 complete kill), read-out: % Growth Reduction ECHCG
# Procedure: (§2) Seeds or nutlets of the desired test plant species were planted in Sun Gro MetroMix® 306 planting mixture, which typically has a pH of 6.0 to 6.8 and an organic matter content of about 30 percent, in plastic pots with a surface area of 64 square centimeters. When required to ensure good germination and healthy plants, a fungicide treatment and/or other chemical or physical treatment was applied. The plants were grown for 7-21 days in a greenhouse with an approximate 15 hour photoperiod which was maintained at about 23-29° C. during the day and 22-28° C. during the night. Nutrients and water were added on a regular basis and supplemental lighting was provided with overhead metal halide 1000-Watt lamps as necessary. The plants were employed for testing when they reached the first or second true leaf stage.
# (§3) A weighed amount, determined by the highest rate to be tested, of each test compound was placed in a 25 mL glass vial and was dissolved in 4 mL of a 97:3 v/v (volume/volume) mixture of acetone and dimethyl sulfoxide (DMSO) to obtain concentrated stock solutions. […] The concentrated stock solutions obtained were diluted with 20 mL of an aqueous mixture containing acetone, water, isopropyl alcohol, DMSO, Atplus 411F crop oil concentrate, and Triton X-155 surfactant in a 48.5:39:10:1.5:1.0:0.02 v/v ratio to obtain spray solutions containing the highest application rates. Additional application rates were obtained by serial dilution of 12 mL of the high rate solution into a solution containing 2 mL of 97:3 v/v (volume/volume) mixture of acetone and DMSO and 10 mL of an aqueous mixture containing acetone, water, isopropyl alcohol, DMSO, Atplus 411F crop oil concentrate, and Triton X-155 surfactant in a 48.5:39:10:1.5:1.0:0.02 v/v ratio to obtain ½X, ¼X, ⅛X and 1/16X rates of the high rate. Compound requirements are based upon a 12 mL application volume at a rate of 187 L/ha. Formulated compounds were applied to the plant material with an overhead Mandel track sprayer equipped with 8002E nozzles calibrated to deliver 187 L/ha over an application area of 0.503 square meters at a spray height of 18 inches […] above the average plant canopy height. Control plants were sprayed in the same manner with the solvent blank.
# (§4) The treated plants and control plants were placed in a greenhouse as described above and watered by sub-irrigation to prevent wash-off of the test compounds. After 14 days, the condition of the test plants as compared with that of the untreated plants was determined visually and scored on a scale of 0 to 100 percent where 0 corresponds to no injury and 100 corresponds to complete kill.
# [3] = tested on: POLCO—Wild buckwheat (Polygonum convolvulus); test: General postemergence herbicidal activity, wild buckwheat; type: in vivo; settings: Fallopia convolvulus, post-emergence, 336 h; post-emergent, rate 140 g ai/ha, visual score after 14 days (0 no injury, 100 complete kill); read-out: % Growth Reduction POLCO
# Procedure: as §2, §3, §4
# [4] = tested on: ABUTH—Velvetleaf (Abutilon theophrasti); test: General preemergence herbicidal activity, velvetleaf; type: in vivo; settings: pre-emergent, rate 140 g ai/ha, visual score after 20-22 days (0 no injury, 100 complete kill or no emergence), read-out: % Growth Inhibition ABUTH
# Description: as §1
# [5] = tested on: SORVU—Common sorghum (Sorghum vulgare); test: General preemergence herbicidal activity, common sorghum; type: in vivo; settings: pre-emergent, rate 140 g ai/ha, visual score after 20-22 days (0 no injury, 100 complete kill or no emergence), read-out: % Growth Inhibition SORVU
# Description: as §1
# [6] = tested on: HELAN—Common sunflower (Helianthus annuus); test: General preemergence herbicidal activity, common sunflower; type: in vivo; settings: pre-emergent, rate 140 g ai/ha, visual score after 20-22 days (0 no injury, 100 complete kill or no emergence), read-out: % Growth Inhibition HELAN
# Description: as §1
# [7] = tested on: CIRAR—Canada thistle (Cirsium arvense); test: General postemergence herbicidal activity, Canada thistle; type: in vivo; settings: post-emergence, 336 h, post-emergent, rate 140 g ai/ha, visual score after 14 days (0 no injury, 100 complete kill), read-out: % Growth Reduction CIRAR
# Procedure: as §2, §3, §4
# ZEAMX—Corn (Zea mays) = test: General preemergence herbicidal activity, corn; type: in vivo; settings: pre-emergent, rate 140 g ai/ha, visual score after 20-22 days (0 no injury, 100 complete kill or no emergence), read-out: % Growth Inhibition ZEAMX
# Description: as §1
# [8] = tested on: ABUTH—Velvetleaf (Abutilon theophrasti); test: General postemergence herbicidal activity, velvetleaf; type: in vivo; settings: post-emergence, 336 h, post-emergent, rate 140 g ai/ha, visual score after 14 days (0 no injury, 100 complete kill), read-out: % Growth Reduction ABUTH
# Procedure: as §2, §3, §4
melting point [°C],SMILES,inhibition at 140 g/ha [1] [%],pest or weed control at 140 g/ha [2] [%],pest or weed control at 140 g/ha [3] [%],inhibition at 140 g/ha [4] [%],inhibition at 140 g/ha [5] [%],inhibition at 140 g/ha [6] [%],pest or weed control at 140 g/ha [7] [%],inhibition at 140 g/ha (ZEAMX—Corn (Zea mays)) [%],pest or weed control at 140 g/ha [8] [%]
194 to 196,"Nc1nc(-c2ccc(Cl)cc2F)nc(C(=O)O)c1Cl [Compound 11, 6-Amino-5-chloro-2-(4-chloro-2-fluorophenyl)pyrimidine-4-carboxylic acid]",100,85,100,90,95,95,100,0,99
209 to 211,"Nc1nc(-c2ccc(Cl)c(F)c2F)nc(C(=O)O)c1Cl [Compound 12, 6-Amino-5-chloro-2-(4-chloro-2,3-difluorophenyl)pyrimidine-4-carboxylic acid]",100,90,100,100,90,100,90,15,100
–,"Nc1nc(-c2ccc(C(F)(F)F)cc2F)nc(C(=O)O)c1Cl [Compound 15, 6-Amino-5-chloro-2-(2-fluoro-4-trifluoromethylphenyl)pyrimidine-4-carboxylic acid]",60,50,65,10,0,10,80,65,40
–,"Nc1nc(-c2ccc(C(F)(F)F)c(F)c2F)nc(C(=O)O)c1Cl [Compound 16, 6-Amino-5-chloro-2-(2,3-difluoro-4-trifluoromethylphenyl)pyrimidine-4-carboxylic acid]",100,90,95,60,60,65,90,30,65
